Consider 8 compounds from article PMC3431023 (Journal of medicinal chemistry, 2012).

Assay [1] deals with nicotine self-administration. As to conditions: rodents; cited from earlier work.
The test system of assay [2] is nAChR. It counts as in vivo. Conditions: mouse, s.c., tested 5 min after injection; (confidence limits).
The test system of assay [3] is nAChR. Format: in vivo. As to conditions: mouse, s.c., tested 5 min after injection.
Assay [4] has as its system nicotine's ability to facilitate ICSS. Conditions: rodents; cited from earlier work.
Assay [5] has as its system CPP produced by nicotine. As to conditions: rodents; cited from earlier work.
The subject of assay [6] is human α4β2-nAChRs. As to conditions: competitive antagonist of human α4β2-nAChRs; cited from earlier work.
Assay [7] concerns the target α3β4-nAChR (Rattus norvegicus, UniProt P04757+P12392). Format: cell-based. Conditions: 100 µM compound, rat α3β4 in Xenopus oocytes.
Assay [8] concerns discriminative stimulus effects of nicotine. As to conditions: rodents; cited from earlier work.
Assay [9] has as its system nAChR. It counts as in vivo. Conditions: mouse, s.c.
Assay [10] relates to nAChR. Format: in vivo. Conditions: mouse, s.c., 30 min.
Assay [11] relates to nAChR. Briefly: Antagonism of nicotine-induced antinociception, hot-plate test. It counts as in vivo. As to conditions: mouse. Background: In hot-plate and tail-flick tests a longer latency is read as antinociception.
For assay [12], the target named is T1, α4β2-nAChR (Rattus norvegicus, UniProt P09483+P12390). Format: binding. As to conditions: Ki ratio.
Target sequence in this assay (P12390 25-500): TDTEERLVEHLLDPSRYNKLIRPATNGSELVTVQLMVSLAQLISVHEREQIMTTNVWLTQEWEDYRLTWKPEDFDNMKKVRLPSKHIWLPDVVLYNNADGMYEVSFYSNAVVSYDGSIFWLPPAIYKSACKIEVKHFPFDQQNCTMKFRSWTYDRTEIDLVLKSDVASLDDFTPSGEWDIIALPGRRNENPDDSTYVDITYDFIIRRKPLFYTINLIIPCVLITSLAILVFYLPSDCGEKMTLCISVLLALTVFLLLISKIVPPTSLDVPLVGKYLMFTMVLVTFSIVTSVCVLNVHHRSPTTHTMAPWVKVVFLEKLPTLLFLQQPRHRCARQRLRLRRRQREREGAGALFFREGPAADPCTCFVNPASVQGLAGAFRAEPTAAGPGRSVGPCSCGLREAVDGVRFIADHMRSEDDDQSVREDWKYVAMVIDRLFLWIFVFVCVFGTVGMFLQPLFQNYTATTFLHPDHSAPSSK
Target sequence in this assay (P09483 31-630): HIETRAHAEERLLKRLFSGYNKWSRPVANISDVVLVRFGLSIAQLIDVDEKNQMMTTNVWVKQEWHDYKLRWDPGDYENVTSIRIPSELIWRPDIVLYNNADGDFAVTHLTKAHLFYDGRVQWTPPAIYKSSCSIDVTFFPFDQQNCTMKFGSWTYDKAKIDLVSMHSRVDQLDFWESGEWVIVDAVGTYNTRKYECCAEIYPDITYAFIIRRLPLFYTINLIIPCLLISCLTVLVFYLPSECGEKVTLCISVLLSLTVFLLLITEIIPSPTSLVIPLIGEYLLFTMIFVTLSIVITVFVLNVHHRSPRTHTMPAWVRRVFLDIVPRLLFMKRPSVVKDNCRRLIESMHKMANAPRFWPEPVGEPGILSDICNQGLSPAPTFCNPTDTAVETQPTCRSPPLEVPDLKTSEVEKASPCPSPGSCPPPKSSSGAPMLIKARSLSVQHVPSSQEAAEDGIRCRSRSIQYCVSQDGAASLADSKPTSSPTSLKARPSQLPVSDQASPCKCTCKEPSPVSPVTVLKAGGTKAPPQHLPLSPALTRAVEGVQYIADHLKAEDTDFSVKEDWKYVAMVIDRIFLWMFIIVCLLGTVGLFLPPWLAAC
The target of assay [13] is T1, α4β2-nAChR. Format: cell-based.
Target sequence in this assay (P09483 31-630): as above
Target sequence in this assay (P12390 25-500): as the sequence (P12390 25-500) above
The subject of assay [14] is α4β2. As to conditions: read-out: Antagonist Activity IC50 α4β2; cited from earlier work.

A value given as a limit tells only on which side of the number the result lay.

α3β4-nAChR, sequence (P04757 26-499): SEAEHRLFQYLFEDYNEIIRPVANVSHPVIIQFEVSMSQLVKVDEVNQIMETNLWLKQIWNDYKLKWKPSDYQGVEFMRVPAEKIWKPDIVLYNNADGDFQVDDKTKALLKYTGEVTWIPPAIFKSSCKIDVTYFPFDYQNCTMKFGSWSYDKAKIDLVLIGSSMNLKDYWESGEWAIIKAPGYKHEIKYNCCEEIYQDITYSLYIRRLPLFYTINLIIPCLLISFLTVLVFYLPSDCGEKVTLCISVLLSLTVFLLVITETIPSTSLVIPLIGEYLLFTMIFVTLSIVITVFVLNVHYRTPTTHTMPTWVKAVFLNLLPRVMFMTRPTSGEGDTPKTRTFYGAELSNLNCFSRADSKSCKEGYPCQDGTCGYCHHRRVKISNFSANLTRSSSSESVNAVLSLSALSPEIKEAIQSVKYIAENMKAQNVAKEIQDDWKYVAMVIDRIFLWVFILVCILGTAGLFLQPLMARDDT
α3β4-nAChR, sequence (P12392 21-495): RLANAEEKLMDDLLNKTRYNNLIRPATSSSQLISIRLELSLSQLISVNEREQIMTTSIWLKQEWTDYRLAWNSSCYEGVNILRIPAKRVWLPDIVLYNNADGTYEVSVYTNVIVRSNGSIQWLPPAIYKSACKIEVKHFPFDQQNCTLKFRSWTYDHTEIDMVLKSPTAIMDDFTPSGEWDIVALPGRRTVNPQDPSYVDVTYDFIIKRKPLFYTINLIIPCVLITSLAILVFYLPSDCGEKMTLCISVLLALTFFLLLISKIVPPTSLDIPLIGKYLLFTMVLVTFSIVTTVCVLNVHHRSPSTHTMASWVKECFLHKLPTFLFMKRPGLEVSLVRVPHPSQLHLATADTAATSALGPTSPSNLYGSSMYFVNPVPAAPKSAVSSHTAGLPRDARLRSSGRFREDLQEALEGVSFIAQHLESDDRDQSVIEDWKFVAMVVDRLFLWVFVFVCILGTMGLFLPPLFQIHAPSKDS

For the compound `O=[N+]([O-])c1ccc(-c2cc(C3CC4CCC3N4)cnc2F)cc1` (stereo not drawn) [Compound 5a, 2'-fluoro-3'-(4-nitrophenyl)deschloroepibatidine], the “effect on i.v. nicotine self-administration” value in [1] is given as “dose-dependently blocked”. In addition, in [2], the “ED50 Tail-Flick” value is recorded as “no functional activity”. The “ED50 Hot-Plate” value in assay [3] was “no functional activity”. Also, the “effect on nicotine's ability to facilitate ICSS” value in assay [4] is on record as “reduced”. Moreover, the “effect on CPP produced by nicotine” value in [5] was “blocked”. Also, in assay [6], the “potency higher than that of dihydro-β-erythroidine (6)” value is reported as 17 fold. The “Agonist Activity (% of max ACh at 100 µM of Compd) α3β4” value in [7] is “low level of agonist activity”. Besides, the “effect on discriminative stimulus effects of nicotine” value in [8] was “attenuated”.

For the compound `CS(=O)(=O)c1ccc(-c2cc(C3CC4CCC3N4)cnc2F)cc1` (stereo not drawn) [Compound 5d, 2'-Fluoro-3'-(4-methanesulfonylphenyl)deschloroepibatidine], the “ED50 Spontaneous Activity” value in assay [9] is listed as “no activity”. In addition, the “ED50 Hypothermia” value in assay [10] is “no activity”. Besides, in assay [11], the “AD50 Hot-Plate” value is listed as “antagonists in the hot-plate test”.

With `N#Cc1ccc(-c2cc(C3CC4CCC3N4)cnc2F)cc1` (stereo not drawn) [Compound 5c, 2'-Fluoro-3'-(4-cyanophenyl)deschloroepibatidine], in [9], the “ED50 Spontaneous Activity” value is “no activity”. The “ED50 Hypothermia” value in assay [10] is “no activity”. The “Agonist Activity (% of max ACh at 100 µM of Compd) α3β4” value in assay [7] is “low level of agonist activity”.

`NC(=O)c1ccc(-c2cc(C3CC4CCC3N4)cnc2F)cc1` (stereo not drawn) [Compound 5g, 2'-Fluoro-3'-(4-carbamoylphenyl)deschloroepibatidine]: the “selectivity for α4β2 over α7 in radioligand binding assays” value in assay [12] is listed as > 15,000 fold. Moreover, in assay [9], the “ED50 Spontaneous Activity” value is “only active in the hypothermia and spontaneous activity tests”. Further, the “ED50 Hypothermia” value in assay [10] was “only active in the hypothermia and spontaneous activity tests”. For the same compound, the “Agonist Activity (% of max ACh at 100 µM of Compd) α4β2” value in assay [13] (100 µM compound, rat α4β2 in Xenopus oocytes) was “low level of agonist activity”. The “Agonist Activity (% of max ACh at 100 µM of Compd) α3β4” value in [7] is “low level of agonist activity”.

With `Fc1ncc(C2CC3CCC2N3)cc1-c1ccc(C(F)(F)F)cc1` (stereo not drawn) [Compound 5b, 2'-Fluoro-3'-(4'-trifluoromethylphenyl)deschloroepibatidine], in assay [9], the “ED50 Spontaneous Activity” value was “no activity”. In addition, the “ED50 Hypothermia” value in assay [10] is listed as “no activity”. For the same compound, in assay [13] (electrophysiology, IC50 ratio), the “selectivity for α4β2- over α3β4-nAChR (antagonist potency)” value is “no selectivity” and the “selectivity for α4β2- over α7-nAChR (antagonist potency)” value is recorded as “no selectivity”. Also, in assay [11], the “AD50 Hot-Plate” value is recorded as “antagonists in the hot-plate test”. Further, in assay [7], the “Agonist Activity (% of max ACh at 100 µM of Compd) α3β4” value was “lacked agonist activity”.

Regarding `c1cnc2cc3c(cc2n1)[C@@H]1CNC[C@H]3C1` [varenicline], the IC50 (usually the concentration that inhibits the measured activity by half) in [14] was 200 ± 30 nM.

On to `NS(=O)(=O)c1ccc(-c2cc(C3CC4CCC3N4)cnc2F)cc1` (stereo not drawn) [Compound 5e, 2'-Fluoro-3'-(4-aminosulfonylphenyl)deschloroepibatidine], for which the “ED50 Spontaneous Activity” value in [9] is recorded as “no activity”. Also, in assay [10], the “ED50 Hypothermia” value is “no activity”.

`O=S(=O)(c1ccc(-c2cc(C3CC4CCC3N4)cnc2F)cc1)C(F)(F)F` (stereo not drawn) [Compound 5f, 2'-Fluoro-3'-(4-trifluoromethanesulfonylphenyl)deschloroepibatidine]: the “ED50 Spontaneous Activity” value in [9] is on record as “only active in the spontaneous activity test”. The “Agonist Activity (% of max ACh at 100 µM of Compd) α3β4” value in assay [7] is reported as “low level of agonist activity”.
